ChEMBL document CHEMBL4406896, “Pyrenocine A induces monopolar spindle formation and suppresses proliferation of cancer cells” (Bioorg Med Chem, 2019)
One block for each molecule: values may come before it. Activity calls are given as the source filed them. The rule behind the calls is not given here.

Assays:
HeLa [1] = assay: Antiproliferative activity against human HeLa cells incubated for 48 hrs by WST8 assay; type: functional, cell-based
HeLa [2] = assay: Induction of cell cycle arrest in S phase synchronized human HeLa cells stably expressing GFP-HistoneH1 fusion protein assessed as increase in formation of ring shaped chromosomes incubated for 4 hrs by inverted fluorescence microscopic method; type: functional, cell-based
HeLa [3] = assay: Induction of cell cycle arrest in S phase synchronized human HeLa cells stably expressing GFP-HistoneH1 fusion protein assessed as chromosomes division at 5 uM incubated for 3 hrs by inverted fluorescence microscopic method; type: functional, cell-based
HeLa [4] = assay: Induction of cell cycle arrest in S phase synchronized human HeLa cells stably expressing GFP-HistoneH1 fusion protein assessed as increase in total mitotic cells at 10 uM incubated for 6 hrs by inverted fluorescence microscopic method relative to control; type: functional
HeLa [5] = assay: Induction of cell cycle arrest in S phase synchronized human HeLa cells stably expressing GFP-HistoneH1 fusion protein assessed as increase in total mitotic cells at 1 uM incubated for 6 hrs by inverted fluorescence microscopic method relative to control; type: functional
HeLa [6] = assay: Induction of cell cycle arrest in S phase synchronized human HeLa cells stably expressing GFP-HistoneH1 fusion protein assessed as increase in total mitotic cells at 5 uM incubated for 6 hrs by inverted fluorescence microscopic method relative to control; type: functional
[7] = target: T1, Kinesin-like protein KIF11 (Homo sapiens) (UniProt P52732); assay: Inhibition of human Eg5 motor domain (1 to 368 residues) expressed in Escherichia coli assessed as reduction in microtubule-stimulated ATPase activity at 100 uM incubated with ATP for 6 mins by malachite green method
T1 sequence (whole entry): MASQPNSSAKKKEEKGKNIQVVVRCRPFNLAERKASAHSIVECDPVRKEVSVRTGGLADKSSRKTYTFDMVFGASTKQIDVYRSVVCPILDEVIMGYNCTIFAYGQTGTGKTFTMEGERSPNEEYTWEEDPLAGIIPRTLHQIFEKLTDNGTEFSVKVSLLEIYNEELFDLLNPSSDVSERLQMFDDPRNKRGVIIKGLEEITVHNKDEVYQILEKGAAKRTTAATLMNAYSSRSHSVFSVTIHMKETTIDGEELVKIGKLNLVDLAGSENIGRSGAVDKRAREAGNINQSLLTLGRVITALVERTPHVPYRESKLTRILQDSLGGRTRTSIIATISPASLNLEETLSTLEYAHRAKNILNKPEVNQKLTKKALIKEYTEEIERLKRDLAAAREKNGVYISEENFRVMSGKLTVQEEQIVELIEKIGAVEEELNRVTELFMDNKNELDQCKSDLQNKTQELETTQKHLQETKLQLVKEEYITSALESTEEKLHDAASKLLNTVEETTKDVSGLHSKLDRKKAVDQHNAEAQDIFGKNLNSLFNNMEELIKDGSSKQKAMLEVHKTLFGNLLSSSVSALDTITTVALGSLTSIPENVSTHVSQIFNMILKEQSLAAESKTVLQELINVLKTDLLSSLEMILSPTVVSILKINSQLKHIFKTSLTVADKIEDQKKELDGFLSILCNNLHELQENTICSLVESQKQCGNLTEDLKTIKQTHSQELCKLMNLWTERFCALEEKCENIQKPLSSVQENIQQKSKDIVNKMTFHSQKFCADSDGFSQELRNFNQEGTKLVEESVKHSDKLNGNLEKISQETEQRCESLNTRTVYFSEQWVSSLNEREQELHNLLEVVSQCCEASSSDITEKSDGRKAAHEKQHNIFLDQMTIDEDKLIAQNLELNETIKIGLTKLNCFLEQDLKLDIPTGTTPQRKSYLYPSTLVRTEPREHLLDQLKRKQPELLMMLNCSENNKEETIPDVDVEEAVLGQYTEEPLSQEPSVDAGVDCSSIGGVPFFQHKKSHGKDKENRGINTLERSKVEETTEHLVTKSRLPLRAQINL

HeLa [8] = assay: Induction of cell cycle arrest in S phase synchronized human HeLa cells stably expressing GFP-HistoneH1 fusion protein assessed as formation of ring shaped chromosomes at 5 uM incubated for 4 hrs by inverted fluorescence microscopic method; type: functional, cell-based
HeLa [9] = assay: Induction of cell cycle arrest in human HeLa cells assessed as mono-polar spindles formation surrounded by ring shaped chromosomes in mitotic cells at 5 uM incubated for 6 hrs by Hoechst 33342 staining based confocal microscopic method; type: functional
HCT-116 = assay: Antiproliferative activity against human HCT116 cells incubated for 48 hrs by WST8 assay; type: functional, cell-based; conditions: HCT-116, 48 h
HeLa [10] = assay: Cytotoxicity against human HeLa cells assessed as cell death at 5 to […] incubated for 48 hrs by LDH assay relative to control; type: cell-based
A549 = assay: Antiproliferative activity against human A549 cells incubated for 48 hrs by WST8 assay; type: functional, cell-based; conditions: A549, 48 h
Huh-7 = assay: Antiproliferative activity against human HuH7 cells incubated for 48 hrs by WST8 assay; type: functional, cell-based; conditions: Huh-7, 48 h
HeLa [11] = assay: Induction of cell cycle arrest in S phase synchronized human HeLa cells stably expressing GFP-HistoneH1 fusion protein assessed as chromosomes alignment at 5 uM incubated for 3 hrs by inverted fluorescence microscopic method; type: functional, cell-based
HeLa [12] = assay: Induction of cell cycle arrest in human HeLa cells assessed as mono-polar spindles formation surrounded by ring shaped chromosomes in mitotic cells at 3 uM incubated for 6 hrs by Hoechst 33342 staining based confocal microscopic method; type: functional

Structure (SMILES): C#CCOCC/C=C/C(=O)c1c(OC)cc(=O)oc1C
- IC50 (HeLa [1]): 2.3 µM
- Activity (HeLa [2]): Active

Structure (SMILES): COc1cc(=O)oc(C)c1C(=O)CC(C)O (centres undefined)
- IC50 (HeLa [1]): 22.3 µM

Structure (SMILES): COc1cccc2c1C(=O)c1c(O)c3c(c(O)c1C2=O)C[C@@](O)(C(=O)CO)C[C@@H]3O[C@H]1C[C@H](N)[C@H](O)[C@H](C)O1 [DOXORUBICIN]
- IC50 (HeLa [1]): 0.4 µM
- IC50 (HCT-116): 0.25 µM
- IC50 (A549): 0.24 µM
- IC50 (Huh-7): 0.22 µM

Structure (SMILES): N[C@@H](CSC(c1ccccc1)(c1ccccc1)c1ccccc1)C(=O)O
- Activity (HeLa [12]): Active

The next lines start with results.

- IC50 (HeLa [1]): > 100 µM
Structure (SMILES): CCCC(=O)c1c(OC)cc(=O)oc1C

- IC50 (HeLa [1]): > 100 µM
Structure (SMILES): C/C=C/Cc1c(O)cc(=O)oc1C

- Activity [7]: inactive
- IC50 (HeLa [1]): 9.3 µM
- IC50 (HCT-116): 2.6 µM
- IC50 (A549): 12.9 µM
- IC50 (Huh-7): 8.6 µM
Structure (SMILES): C/C=C/C(=O)c1c(OC)cc(=O)oc1C
- Activity (HeLa [3]): inactive
- Activity (HeLa [4]): 14%
- Activity (HeLa [5]): 2%
- Activity (HeLa [6]): 7%
- Activity (HeLa [8]): Active
- Activity (HeLa [9]): Active
- Activity (HeLa [10]): 0 to 6%
- Activity (HeLa [2]): Dose-dependent effect
- Activity (HeLa [11]): inactive
